According to ChEMBL document CHEMBL4823278, “Metal binding 6-arylthio-3-hydroxypyrimidine-2,4-diones inhibited human cytomegalovirus by targeting the pUL89 endonuclease of the terminase complex” (Eur J Med Chem, 2021):
Blank lines part the entries; values can stand above or below the molecule they belong to.

What was measured:
[1] = biological target: T1, Tripartite terminase subunit 3 (Human betaherpesvirus 5) (UniProt P16732); test: Inhibition of human cytomegalovirus pUL89 endonuclease activity using 60 bp dsDNA substrate at 20 uM incubated for 30 mins by ELISA-based biochemical assay relative to control
T1 sequence (whole entry): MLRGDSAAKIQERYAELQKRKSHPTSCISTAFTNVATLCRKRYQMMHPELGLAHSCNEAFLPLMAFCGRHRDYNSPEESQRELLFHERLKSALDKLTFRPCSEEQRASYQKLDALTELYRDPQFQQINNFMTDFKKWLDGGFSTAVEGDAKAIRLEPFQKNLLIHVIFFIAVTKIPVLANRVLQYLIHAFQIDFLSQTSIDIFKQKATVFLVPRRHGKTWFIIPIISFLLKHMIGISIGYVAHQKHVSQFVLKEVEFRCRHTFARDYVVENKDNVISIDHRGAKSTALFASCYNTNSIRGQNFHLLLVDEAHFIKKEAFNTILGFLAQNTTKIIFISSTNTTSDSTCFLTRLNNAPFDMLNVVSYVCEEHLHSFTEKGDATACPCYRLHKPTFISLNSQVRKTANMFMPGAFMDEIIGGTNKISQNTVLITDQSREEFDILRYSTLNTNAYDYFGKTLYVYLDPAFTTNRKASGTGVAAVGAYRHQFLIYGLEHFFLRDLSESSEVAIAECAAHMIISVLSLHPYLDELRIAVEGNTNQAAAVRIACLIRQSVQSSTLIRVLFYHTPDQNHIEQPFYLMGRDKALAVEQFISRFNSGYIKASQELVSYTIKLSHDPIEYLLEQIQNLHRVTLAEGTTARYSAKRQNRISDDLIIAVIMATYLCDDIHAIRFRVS

Human betaherpesvirus 5 [2] = type: functional; details: Human betaherpesvirus 5, HEL 299, time 168 hrs
[3] = (§1) Cytotoxicity against human HEL 299 cells assessed as cell viability at 10 uM incubated for 168 hrs by MTS-based tetrazolium reduction assay relative to control; details: HEL 299 cells, read-out: Activity
[4] = Apparent permeability of the compound incubated for 5 hrs by LC-MS/MS analysis based PAMPA method; type: ADME; details: for Papp: pampa, 5 h
[5] = biological target: T2, Tripartite terminase subunit 3 (Human betaherpesvirus 5, UniProt P16732)
T2 sequence (P16732 whole entry): T1 sequence (whole entry)

[6] = biological target: T1, Tripartite terminase subunit 3 (Human betaherpesvirus 5); details: dose 20.0 µM
HEL 299 [7] = test: as §1; details: hel 299, 168 h, 10 µM
Human betaherpesvirus 5 [8] = type: functional, cell-based; details: Human betaherpesvirus 5, HEL 299, 168 h
HEL 299 [9] = details: human, hel 299, 168 h

SMILES: O=c1cc(Sc2ccc(Br)cc2)[nH]c(=O)n1O
inhibition [1]: 14%
inhibition at 10 µM (Human betaherpesvirus 5 [2]): 12%
viability at 168 h, 10 µM [3]: 129%

SMILES: CCn1c(Sc2cccc(F)c2)cc(=O)n(O)c1=O
inhibition [1]: 34%
inhibition at 10 µM (Human betaherpesvirus 5 [2]): 12%
viability at 168 h, 10 µM [3]: 126%
Papp [4]: 3.4 10^-6 cm/s
IC50 [5]: 23 µM
ΔTm [6]: 0.86 °C

SMILES: O=C(O)c1cn(Cc2ccc(Cl)c(F)c2)cc(O)c1=O
ΔTm [6]: 2.4 °C

inhibition [1]: 16%
SMILES: O=c1cc(Sc2ccc(C(F)(F)F)cc2)[nH]c(=O)n1O
inhibition at 10 µM (Human betaherpesvirus 5 [2]): -9%
viability at 168 h, 10 µM [3]: 119%

SMILES: CCc1ccc(Sc2cc(=O)n(O)c(=O)n2C)cc1
inhibition [1]: 67%
inhibition at 10 µM (Human betaherpesvirus 5 [2]): 21%
viability at 168 h, 10 µM [3]: 121%
Papp [4]: 6.6 10^-6 cm/s
IC50 [5]: 11.8 µM
ΔTm [6]: 0.29 °C

SMILES: CCn1c(Sc2cccc(Br)c2)cc(=O)n(O)c1=O
inhibition [1]: 71%
inhibition at 10 µM (Human betaherpesvirus 5 [2]): 100%
viability at 168 h, 10 µM [3]: 7%

inhibition [1]: 76%
SMILES: CCn1c(Sc2ccc(Cl)cc2)cc(=O)n(O)c1=O
inhibition at 10 µM (Human betaherpesvirus 5 [2]): 98%
viability at 168 h, 10 µM [3]: 40%

Papp [4]: 2.4 10^-6 cm/s
SMILES: COc1cccc(Sc2cc(=O)n(O)c(=O)n2C)c1
inhibition at 10 µM (Human betaherpesvirus 5 [2]): 91%
viability at 168 h, 10 µM [3]: 135%

inhibition [1]: 65%
SMILES: Cn1c(Sc2ccccc2)cc(=O)n(O)c1=O
inhibition at 10 µM (Human betaherpesvirus 5 [2]): 21%
viability at 168 h, 10 µM [3]: 115%

inhibition [1]: 10%
SMILES: O=c1cc(Sc2cccc(-c3ccc(F)cc3)c2)[nH]c(=O)n1O
inhibition at 10 µM (Human betaherpesvirus 5 [2]): 19%
viability at 168 h, 10 µM [3]: 100%

inhibition [1]: 11%
SMILES: COc1cccc(-c2ccc(Sc3cc(=O)n(O)c(=O)[nH]3)cc2)c1
inhibition at 10 µM (Human betaherpesvirus 5 [2]): 71%
viability at 168 h, 10 µM [3]: 107%

SMILES: Cn1c(Sc2ccc(F)cc2)cc(=O)n(O)c1=O
inhibition [1]: 90%
inhibition at 10 µM (Human betaherpesvirus 5 [2]): 0%
viability at 168 h, 10 µM [3]: 117%
Papp [4]: 3 10^-6 cm/s
IC50 [5]: 12 µM
ΔTm [6]: 0.86 °C

SMILES: Cn1c(Sc2ccc(C(F)(F)F)cc2)cc(=O)n(O)c1=O
inhibition at 10 µM (Human betaherpesvirus 5 [2]): 50%
viability at 168 h, 10 µM [3]: 107%

SMILES: Cn1c(Sc2ccc(Br)cc2)cc(=O)n(O)c1=O
inhibition at 10 µM (Human betaherpesvirus 5 [2]): 57%
viability at 168 h, 10 µM [3]: 113%

SMILES: O=c1cc(Sc2cccc(Br)c2)[nH]c(=O)n1O
inhibition [1]: 16%
inhibition at 10 µM (Human betaherpesvirus 5 [2]): -6%
viability at 168 h, 10 µM [3]: 123%

SMILES: Cn1c(Sc2cccc(Br)c2)cc(=O)n(O)c1=O
inhibition at 10 µM (Human betaherpesvirus 5 [2]): 100%
viability at 168 h, 10 µM [3]: 14%
IC50 [5]: 6.5 µM
ΔTm [6]: 0.76 °C

SMILES: O=c1cc(Sc2ccccc2Br)[nH]c(=O)n1O
inhibition [1]: 21%
inhibition at 10 µM (Human betaherpesvirus 5 [2]): -14%
viability at 168 h, 10 µM [3]: 101%

SMILES: Cc1ccc(-c2ccc(Nc3cc(=O)n(O)c(=O)n3C)cc2)cc1
IC50 [5]: 3.3 µM
ΔTm [6]: -2.8 °C

SMILES: CCn1c(Sc2ccc(Br)cc2)cc(=O)n(O)c1=O
inhibition [1]: 66%
inhibition at 10 µM (Human betaherpesvirus 5 [2]): 100%
viability at 168 h, 10 µM [3]: 16%

inhibition [1]: 30%
SMILES: O=c1cc(Sc2ccccc2)[nH]c(=O)n1O
inhibition at 10 µM (Human betaherpesvirus 5 [2]): -16%
viability at 168 h, 10 µM [3]: 108%

SMILES: COc1cccc(Sc2cc(=O)n(O)c(=O)[nH]2)c1
inhibition [1]: 92%
inhibition at 10 µM (Human betaherpesvirus 5 [2]): -13%
viability at 168 h, 10 µM [3]: 114%
Papp [4]: 0.21 10^-6 cm/s
IC50 [5]: 1.9 µM
ΔTm [6]: 1.8 °C

Papp [4]: 4.1 10^-6 cm/s
SMILES: CCn1c(Sc2ccc(F)cc2)cc(=O)n(O)c1=O
inhibition at 10 µM (Human betaherpesvirus 5 [2]): 67%
viability at 168 h, 10 µM [3]: 114%

Papp [4]: 4.5 10^-6 cm/s
SMILES: Cn1c(Sc2ccc(Cl)cc2)cc(=O)n(O)c1=O
inhibition at 10 µM (Human betaherpesvirus 5 [2]): 35%
viability at 168 h, 10 µM [3]: 132%

SMILES: O=c1cc(Sc2ccc([N+](=O)[O-])cc2)[nH]c(=O)n1O
inhibition [1]: 58%
inhibition at 10 µM (Human betaherpesvirus 5 [2]): -5.1%
viability at 168 h, 10 µM [3]: 115%
Papp [4]: 0.017 10^-6 cm/s
IC50 [5]: 3.6 µM
ΔTm [6]: 2.8 °C

inhibition [1]: 20%
SMILES: O=c1cc(Sc2cccc(-c3cccc(C(F)(F)F)c3)c2)[nH]c(=O)n1O
inhibition at 10 µM (Human betaherpesvirus 5 [2]): 33%
viability at 168 h, 10 µM [3]: 118%

SMILES: O=c1cc(Sc2ccc(F)cc2)[nH]c(=O)n1O
inhibition [1]: 54%
inhibition at 10 µM (Human betaherpesvirus 5 [2]): -2.3%
viability at 168 h, 10 µM [3]: 118%

inhibition [1]: 16%
SMILES: COc1ccc(-c2cccc(Sc3cc(=O)n(O)c(=O)[nH]3)c2)cc1F
inhibition at 10 µM (Human betaherpesvirus 5 [2]): -11%
viability at 168 h, 10 µM [3]: 106%

inhibition [1]: 40%
SMILES: O=c1cc(Sc2cccc(F)c2)[nH]c(=O)n1O
inhibition at 10 µM (Human betaherpesvirus 5 [2]): 83%
Activity (HEL 299 [7]): 65%

inhibition [1]: 75%
SMILES: CCn1c(Sc2ccccc2F)cc(=O)n(O)c1=O
inhibition at 10 µM (Human betaherpesvirus 5 [2]): -0.7%
Activity (HEL 299 [7]): 124%

Papp [4]: 5.1 10^-6 cm/s
SMILES: Cn1c(Sc2cccc3ccccc23)cc(=O)n(O)c1=O
inhibition at 10 µM (Human betaherpesvirus 5 [2]): 98%
viability at 168 h, 10 µM [3]: 111%

inhibition [1]: 27%
SMILES: O=c1cc(Sc2ccc(O)cc2)[nH]c(=O)n1O
inhibition at 10 µM (Human betaherpesvirus 5 [2]): 1%
viability at 168 h, 10 µM [3]: 118%

SMILES: Cn1c(Sc2cccc(Cl)c2)cc(=O)n(O)c1=O
inhibition [1]: 37%
inhibition at 10 µM (Human betaherpesvirus 5 [2]): 74%
viability at 168 h, 10 µM [3]: 117%
EC50 (Human betaherpesvirus 5 [8]): 4.7 µM
CC50 (HEL 299 [9]): 23.1 µM

SMILES: Cn1c(Sc2cccc(C(F)(F)F)c2)cc(=O)n(O)c1=O
inhibition at 10 µM (Human betaherpesvirus 5 [2]): 68%
viability at 168 h, 10 µM [3]: 99%

SMILES: Cc1ccc(-c2cccc(Nc3cc(=O)n(O)c(=O)[nH]3)c2)c(C)c1
IC50 [5]: 3.5 µM
ΔTm [6]: -2.2 °C

SMILES: O=c1cc(Sc2cccc(-c3ccc(Cl)cc3)c2)[nH]c(=O)n1O
inhibition at 10 µM (Human betaherpesvirus 5 [2]): 81%
viability at 168 h, 10 µM [3]: 100%

inhibition [1]: 19%
SMILES: O=c1cc(Sc2ccc(-c3ccc(F)cc3)cc2)[nH]c(=O)n1O
inhibition at 10 µM (Human betaherpesvirus 5 [2]): 79%
viability at 168 h, 10 µM [3]: 99%

SMILES: CCn1c(Sc2cccc(Cl)c2)cc(=O)n(O)c1=O
inhibition [1]: 59%
inhibition at 10 µM (Human betaherpesvirus 5 [2]): 101%
viability at 168 h, 10 µM [3]: 1.3%
Papp [4]: 5.1 10^-6 cm/s
IC50 [5]: 5.7 µM
ΔTm [6]: 0.74 °C

SMILES: Nc1nc(O)c2ncn(COC(CO)CO)c2n1 [GANCICLOVIR]
CC50 (HEL 299 [9]): > 50 µM

inhibition [1]: 12%
SMILES: O=c1cc(Sc2ccc(-c3ccc(C(F)(F)F)cc3)cc2)[nH]c(=O)n1O
inhibition at 10 µM (Human betaherpesvirus 5 [2]): 84%
viability at 168 h, 10 µM [3]: 107%

Papp [4]: 5.8 10^-6 cm/s
SMILES: CCc1ccccc1Sc1cc(=O)n(O)c(=O)n1C
inhibition at 10 µM (Human betaherpesvirus 5 [2]): 87%
viability at 168 h, 10 µM [3]: 108%

inhibition [1]: 22%
SMILES: O=c1cc(Sc2cccc(-c3ccc(C(F)(F)F)cc3)c2)[nH]c(=O)n1O
inhibition at 10 µM (Human betaherpesvirus 5 [2]): 70%
viability at 168 h, 10 µM [3]: 110%

SMILES: Cn1c(Sc2cccc(F)c2)cc(=O)n(O)c1=O
inhibition [1]: 37%
inhibition at 10 µM (Human betaherpesvirus 5 [2]): -3.8%
viability at 168 h, 10 µM [3]: 125%
Papp [4]: 2.5 10^-6 cm/s
IC50 [5]: 24 µM
ΔTm [6]: 0.56 °C

SMILES: COc1ccc(-c2ccc(Sc3cc(=O)n(O)c(=O)[nH]3)cc2)cc1
inhibition [1]: 22%
inhibition at 10 µM (Human betaherpesvirus 5 [2]): 80%
viability at 168 h, 10 µM [3]: 94%
Papp at 5 h ([4]; PAMPA): 1.1 ×10⁻⁶ cm/s
EC50 (Human betaherpesvirus 5 [8]): 7.2 µM
CC50 (HEL 299 [9]): 20.3 µM

inhibition [1]: 11%
SMILES: O=c1cc(Sc2ccc(-c3ccc(Cl)cc3)cc2)[nH]c(=O)n1O
inhibition at 10 µM (Human betaherpesvirus 5 [2]): 82%
viability at 168 h, 10 µM [3]: 102%

SMILES: CCn1c(Sc2ccccc2Br)cc(=O)n(O)c1=O
inhibition [1]: 64%
inhibition at 10 µM (Human betaherpesvirus 5 [2]): 100%
viability at 168 h, 10 µM [3]: 16%

SMILES: Cn1c(Sc2ccccc2Br)cc(=O)n(O)c1=O
viability at 168 h, 10 µM [3]: 117%
